In PubChem BioAssay AID588576 (Sanford-Burnham Center for Chemical Genomics, 2011):
The source made the active and inactive calls.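 Rule for the calls: active = an EC50 below a set limit for the caspase 9 and 3 cleavage signal; inactive = the rest.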

Target: Caspase-3 (Homo sapiens) + Caspase-9 (Homo sapiens) (UniProt P42574+P55211)
Experiment: activation of LZ-caspase-9 coupled caspase-3 activity – biochemical, fluorescence, LZ-caspase-9 mutant, selectivity assay for Apaf-1 activator project, SAR follow-up (AID 588576)
Conditions: recombinant LZ-caspase-9/procaspase-3, DEVD-Rh110 fluorescence, 55 min

Sequence of Caspase-3 (Homo sapiens) + Caspase-9 (Homo sapiens) (P42574 whole entry, looked up): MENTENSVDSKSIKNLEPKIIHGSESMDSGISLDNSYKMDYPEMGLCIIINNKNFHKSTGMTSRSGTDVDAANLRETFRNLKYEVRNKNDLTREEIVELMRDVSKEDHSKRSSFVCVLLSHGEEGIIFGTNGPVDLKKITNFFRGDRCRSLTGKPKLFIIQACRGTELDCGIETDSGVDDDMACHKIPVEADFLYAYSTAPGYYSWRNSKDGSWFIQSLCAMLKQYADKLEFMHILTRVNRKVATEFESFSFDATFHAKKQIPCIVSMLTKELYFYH
Sequence of Caspase-3 (Homo sapiens) + Caspase-9 (Homo sapiens) (P55211 whole entry, looked up): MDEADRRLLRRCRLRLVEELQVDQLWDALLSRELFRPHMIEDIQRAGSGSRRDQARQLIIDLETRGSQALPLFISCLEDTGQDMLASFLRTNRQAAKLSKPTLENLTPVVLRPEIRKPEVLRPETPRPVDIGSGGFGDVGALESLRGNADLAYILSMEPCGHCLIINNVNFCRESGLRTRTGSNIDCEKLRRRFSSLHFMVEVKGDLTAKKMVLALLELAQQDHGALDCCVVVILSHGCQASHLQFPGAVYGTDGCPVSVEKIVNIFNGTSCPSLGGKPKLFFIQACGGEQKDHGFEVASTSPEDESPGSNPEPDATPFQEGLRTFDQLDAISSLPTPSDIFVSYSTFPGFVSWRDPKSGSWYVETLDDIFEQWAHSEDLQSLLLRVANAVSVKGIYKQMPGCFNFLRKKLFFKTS

| Structure (SMILES) | EC50 |
| --- | --- |
| O=C(c1ccco1)N1CCN(C(=O)C2CC(c3ccc(F)cc3)=NO2)CC1 (configuration not stated) | > 100 µM (inactive) |
| O=C(Nc1nc2ccsc2c(=O)s1)c1cccs1 | > 100 µM (inactive) |
| O=C1CC2(CC(c3c(F)cccc3Cl)=NO2)C(=O)N1c1ccccc1 (configuration not stated) | > 100 µM (inactive) |
| Cc1cc(C)n(CC(C)C(=O)Nc2ccc(Cl)c(Cl)c2)n1 (configuration not stated) | > 100 µM (inactive) |
| Cc1nn(CC(C)C(=O)O)c(C)c1Br (configuration not stated) | > 100 µM (inactive) |
| Cc1cc(C)c(O)c(N2CC(C(=O)O)CC2=O)c1 (configuration not stated) | > 100 µM (inactive) |
| O=C(Nc1nc2ccsc2c(=O)s1)C1CCC1 | > 100 µM (inactive) |
| Cc1cc(C)n(C(C)CC(=O)Nc2cccnc2)n1 (configuration not stated) | > 100 µM (inactive) |
| Cc1cc(C)n(C(C)C(C)C(=O)O)n1 (configuration not stated) | > 100 µM (inactive) |
| Cc1nn(Cc2ccccc2)c(C)c1CCC(=O)O | > 100 µM (inactive) |
| Cc1cc(NC(=O)C2CC(c3ccc(F)cc3)=NO2)n(-c2ccccc2)n1 (configuration not stated) | > 100 µM (inactive) |
| O=C(Nc1ccc(F)cc1F)C1CC(c2ccc(F)cc2)=NO1 (configuration not stated) | > 100 µM (inactive) |
| Cc1c(NC(=O)C2CC(c3ccc(F)cc3)=NO2)c(=O)n(-c2ccccc2)n1C (configuration not stated) | > 100 µM (inactive) |
| O=C(Nc1nc2ccsc2c(=O)s1)c1ccco1 | > 100 µM (inactive) |
| CCOc1ccccc1NC(=O)CCS(=O)(=O)c1ccc2c(c1)OCCO2 | > 100 µM (inactive) |
| CC(Cc1c[nH]c2ccccc12)C(=O)O (configuration not stated) | > 100 µM (inactive) |
| O=C(O)C1CC(c2ccc(F)cc2)=NO1 (configuration not stated) | > 100 µM (inactive) |
